Results on one molecule are retold here after patent US20220193126A1, “METHODS OF TREATING IMBALANCE OF PLASMA LIPIDS LEVEL AND FATTY LIVER WITH M2C MACROPHAGES” (National Pingtung University of Science and Technology, priority 2020, published 2022).

Assay [1] relates to bone marrow derived macrophages (BMDM). Briefly: Induction of M2C macrophage polarization by baicalin (morphology, microscope images). The class given is cell-based, mice (C57BL/6J). The following applies: 50 μM Baicalin for 24 hours, vs placebo-treated group (M-CSF) spindle shape. On the procedure: The bone marrow was flushed out from the femurs of mice (C57BL/6J, 8-week-old to 20-week-old, from National Laboratory Animal Center in Taipei, Taiwan) with phosphate-buffered saline (PBS) containing BSA 0.5%. The peripheral blood or bone marrow flushing fluid were layered with Ficoll-Hypaque (GE Healthcare, Uppsala, Sweden) and centrifuged at 400×g for 40 minutes at 18° C. to isolate the mononuclear cell of peripheral blood and bone marrow. The interphase layer containing mononuclear cell was washed with PBS and centrifuged for 10 minutes at 100×g, 18° C. twice. Plate mononuclear cells in dish culture with RPM 1640 supplemented with 10% FBS (fetal bovine serum) and 50 ng/ml recombinant mouse M-CSF (PeproTech, British) at 37° C. and 5% CO2 for 7 days to induce the mononuclear cells to differentiate into macrophage. On the next day of the 7th day of M-CSF treatment, 5×10^5 cells of bone marrow derived macrophages (BMDM) cells were plated in RPMI 1640 (10% FBS) and incubated overnight. After overnight incubation, the BMDM cells were incubated in RPMI 1640 (10% FBS) supplemented with 50 μM Baicalin for 24 hours to induce the BMDM cells to polarize into […] macrophage.

Assay [2] deals with MERTK. Briefly: Flow cytometry confirmation of MERTK expression on M2C macrophages. The class given is cell-based, mouse. The note with it: baicalin-treated vs placebo-treated macrophages. On the procedure:
The bone marrow was flushed out from the femurs of mice (C57BL/6J, 8-week-old to 20-week-old, from National Laboratory Animal Center in Taipei, Taiwan) with phosphate-buffered saline (PBS) containing BSA 0.5%. The peripheral blood or bone marrow flushing fluid were layered with Ficoll-Hypaque (GE Healthcare, Uppsala, Sweden) and centrifuged at 400×g for 40 minutes at 18° C. to isolate the mononuclear cell of peripheral blood and bone marrow. The interphase layer containing mononuclear cell was washed with PBS and centrifuged for 10 minutes at 100×g, 18° C. twice. Plate mononuclear cells in dish culture with RPM 1640 supplemented with 10% FBS (fetal bovine serum) and 50 ng/ml recombinant mouse M-CSF (PeproTech, British) at 37° C. and 5% CO2 for 7 days to induce the mononuclear cells to differentiate into macrophage. On the next day of the 7th day of M-CSF treatment, 5×10^5 cells of bone marrow derived macrophages (BMDM) cells were plated in RPMI 1640 (10% FBS) and incubated overnight. […]
1×10^6 cells of the M2C macrophages induced by baicalin were analyzed by flow cytometry to confirm whether the M2C macrophages express MERTK. Fluorescence-labelled anti-mouse antibodies (Biolegend, the U.S.A.), FITC-anti-CD 11b and PE-anti-MERTK, are used in the analysis. […] After removing supernatant, the sample was dissolved in 1 ml of PBS and analyzed by flow cytometry.
Background: A flow cytometer gives signals particle by particle.

Consider `O=C(O)[C@H]1O[C@@H](Oc2cc3oc(-c4ccccc4)cc(=O)c3c(O)c2O)[C@H](O)[C@@H](O)[C@@H]1O` [baicalin], for which the “morphology of the macrophages” value in assay [1] is reported as “basically round shape”. Also, the “average MERTK expression level on single cell (mean fluorescence intensity, MFI)” value in assay [2] is reported as “significantly enhanced”.
